Laboratory results published in ChEMBL document CHEMBL1156687, “Design and microwave-assisted synthesis of 5-trifluoromethyl-4,5-dihydro-1H-pyrazoles: novel agents with analgesic and anti-inflammatory properties” (Eur J Med Chem, 2008).
The source made the active and inactive calls. The calls are words filed in the database; no cut-off is given here.

Key:
Mus musculus [1] = experiment: Analgesic activity against formalin-induced inflammatory pain in albino mouse assessed as time spent on paw licking at 1000 umol/kg, sc administered 20 mins before formalin challenge assessed for 30 mins at 5 mins intervals; assay type: functional
Mus musculus [2] = experiment: Analgesic activity against formalin-induced neurogenic pain in albino mouse assessed as time spent on paw licking at 1000 umol/kg, sc administered 20 mins before formalin challenge assessed for 30 mins at 5 mins intervals; assay type: functional
Mus musculus [3] = experiment: Analgesic activity against formalin-induced neurogenic pain in albino mouse assessed as time spent on paw licking at 750 umol/kg, sc administered 20 mins before formalin challenge assessed for 30 mins at 5 mins intervals; assay type: functional
Mus musculus [4] = experiment: Analgesic activity against formalin-induced inflammatory pain in albino mouse assessed as time spent on paw licking at 750 umol/kg, sc administered 20 mins before formalin challenge assessed for 30 mins at 5 mins intervals; assay type: functional
Mus musculus [5] = organism: Mus musculus; experiment: Toxicity against in albino mouse after 72 hrs; assay type: organism-based; settings: in vivo
Mus musculus [6] = experiment: Analgesic activity against formalin-induced inflammatory pain in albino mouse assessed as time spent on paw licking at 25 umol/kg, sc administered 20 mins before formalin challenge assessed for 30 mins at 5 mins intervals; assay type: functional, organism-based
Mus musculus [7] = experiment: Analgesic activity in albino mouse assessed as response latency at 1000 ug/ml, sc after 30 mins by hot plate method; assay type: functional, organism-based
Mus musculus [8] = experiment: Analgesic activity in albino mouse assessed as falling latency at 1000 ug/ml, sc after 30 mins by rotarod test; assay type: functional
Mus musculus [9] = experiment: Increase in locomotor activity in albino mouse assessed as number of crossing at 1000 umol/kg; assay type: functional
Mus musculus [10] = experiment: Analgesic activity in albino mouse assessed as number of falls from the rod at 1000 ug/ml, sc after 4 mins by rotarod test; assay type: functional
Mus musculus [11] = experiment: Analgesic activity in albino mouse assessed as inhibition of carrageenan-induced paw edema at 1000 ug/ml; assay type: functional; design: scale not given: the % may be the effect or the level left
Mus musculus [12] = experiment: Analgesic activity against formalin-induced inflammatory pain in albino mouse assessed as time spent on paw licking at 1500 umol/kg, sc administered 20 mins before formalin challenge assessed for 30 mins at 5 mins intervals; assay type: functional, organism-based
Mus musculus [13] = experiment: Analgesic activity against formalin-induced neurogenic pain in albino mouse assessed as time spent on paw licking at 1500 umol/kg, sc administered 20 mins before formalin challenge assessed for 30 mins at 5 mins intervals; assay type: functional, organism-based
Mus musculus [14] = experiment: Analgesic activity in albino mouse assessed as response latency at 1500 ug/ml, sc after 30 mins by hot plate method; assay type: functional, organism-based
Mus musculus [15] = experiment: Increase in locomotor activity in albino mouse assessed as number of crossing at 1500 umol/kg; assay type: functional
Mus musculus [16] = experiment: Analgesic activity against formalin-induced inflammatory pain in albino mouse assessed as time spent on paw licking at 250 umol/kg, sc administered 20 mins before formalin challenge assessed for 30 mins at 5 mins intervals; assay type: functional, organism-based
Mus musculus [17] = experiment: Analgesic activity against formalin-induced inflammatory pain in albino mouse assessed as time spent on paw licking at 75 umol/kg, sc administered 20 mins before formalin challenge assessed for 30 mins at 5 mins intervals; assay type: functional, organism-based

NC(=O)N1N=C(c2ccccc2)CC1(O)C(F)(F)F (centres undefined)
Activity (Mus musculus [1]): 8.2%
Activity (Mus musculus [2]): 10%

CC(C)C1=NN(C(N)=O)C(O)(C(F)(F)F)C1 (centres undefined)
Activity (Mus musculus [3]): 51.9%
Activity (Mus musculus [4]): 67%
Activity (Mus musculus [5]): Non-toxic
Activity (Mus musculus [6]): Active

CCC1=NN(C(N)=O)C(O)(C(F)(F)F)C1 (centres undefined)
Activity (Mus musculus [1]): 98.2%
Activity (Mus musculus [7]): inactive
Activity (Mus musculus [8]): 112.5 s
Activity (Mus musculus [2]): 87.9%
Activity (Mus musculus [9]): 165.6
Activity (Mus musculus [10]): 3.7
Activity (Mus musculus [11]): 43.7%
Activity (Mus musculus [12]): Active
Activity (Mus musculus [13]): Active

Cc1c(N(C)CS(=O)(=O)[O-])c(=O)n(-c2ccccc2)n1C.[Na+] [DIPYRONE SODIUM]
Activity (Mus musculus [9]): 87.7
Activity (Mus musculus [14]): Active
Activity (Mus musculus [13]): Active

NC(=O)c1ccccc1O [SALICYLAMIDE]
Activity (Mus musculus [15]): 102.1
Activity (Mus musculus [13]): inactive

CC1C=NN(C(N)=O)C1(O)C(F)(F)F (centres undefined)
Activity (Mus musculus [1]): 97.2%
Activity (Mus musculus [7]): inactive
Activity (Mus musculus [8]): 62.6 s
Activity (Mus musculus [2]): 74.6%
Activity (Mus musculus [9]): 167.3
Activity (Mus musculus [10]): 5.1
Activity (Mus musculus [5]): Non-toxic
Activity (Mus musculus [11]): 34.6%
Activity (Mus musculus [12]): Active
Activity (Mus musculus [13]): Active

NC(=O)N1N=C(c2ccc(Br)cc2)CC1(O)C(F)(F)F (centres undefined)
Activity (Mus musculus [1]): 47.3%
Activity (Mus musculus [2]): 33.3%

CC(C)(C)C1=NN(C(N)=O)C(O)(C(F)(F)F)C1 (centres undefined)
Activity (Mus musculus [1]): 72.9%
Activity (Mus musculus [2]): 59.1%

NC(=O)N1N=CCC1(O)C(F)(F)F (centres undefined)
Activity (Mus musculus [1]): 70.8%
Activity (Mus musculus [2]): 32.8%

CCCC1=NN(C(N)=O)C(O)(C(F)(F)F)C1 (centres undefined)
Activity (Mus musculus [3]): 48.2%
Activity (Mus musculus [4]): 70.1%
Activity (Mus musculus [16]): inactive
Activity (Mus musculus [17]): Active

CCCCC1=NN(C(N)=O)C(O)(C(F)(F)F)C1 (centres undefined)
Activity (Mus musculus [3]): 46%
Activity (Mus musculus [4]): -22.3%

CC1=NN(C(N)=O)C(O)(C(F)(F)F)C1 (centres undefined)
Activity (Mus musculus [1]): 55.5%
Activity (Mus musculus [2]): 23.3%
